Active and inactive are the calls of the source.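 How the source made its calls: active means caspase luminescence falls with dose and the half-maximal concentration AC50 from the fitted curve is at or below a set limit; inconclusive means flat fit at 30 to 70% signal loss, or invalid fit; inactive means AC50 above the limit, or signal rises instead.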
Each molecule was assayed on INS-1E cytokine-induced caspase-3/7, Caspase-Glo luminescence, 48 h (assay: inhibitors of cytokine-induced caspase-3/7 activity, dose response, orthogonal assay for beta-cell apoptosis protection project, INS-1E rat cells, luminescence (AID 463206)).
In the case of `CCCCCCCCn1c2c(c(=N)c3c1CCC3)CCCC2`, the AC50 is reported as > 26 µM (inactive). `O=C(Nc1ccc(Nc2ccncc2)cc1)c1ccc(Nc2ccnc3ccc([N+](=O)[O-])cc23)cc1[N+](=O)[O-]` was tested, and the AC50 was > 26 µM (inactive). `CCN(CC)c1ccc(C(=O)N/N=C/c2ccccc2OC(F)F)cc1` was tested, and the AC50 was > 26 µM (inactive). In the case of `COc1ccc(-c2nn(-c3ccccc3)cc2/C=N/Nc2ccc3ccccc3n2)cc1OC`, the AC50 is reported as > 26 µM (inactive). `CC(C)(C)C(=O)Nc1ccc(C(=O)N/N=C/c2ccccc2OC(=O)c2ccc(Cl)cc2)cc1` was tested, and the AC50 was > 26 µM (inactive). `c1ccc(C2(Cn3ccc4ccccc43)OCCO2)cc1` was tested, and the AC50 was > 26 µM (inactive). In the case of `Cc1ccc2nc(/C(C#N)=C\c3ccc([N+](=O)[O-])o3)[nH]c2c1`, the AC50 is reported as > 26 µM (inactive). With `Cc1cccc(N=Nc2ccc(O)c3ncccc23)c1` the AC50 was > 26 µM (inactive). For `CCC(C)Nc1nc(-c2ccccn2)nc2ccccc12` (centres undefined), the AC50 was > 26 µM (inactive). With `O=C(NCC#CCSc1nnc(-c2cccc3ccccc23)o1)c1cccs1` the AC50 was > 26 µM (inactive). For `COc1ccc(C(=O)N/N=C/c2sc3ccccc3c2O)cc1`, the AC50 was > 26 µM (inactive). For `CCN1CCN(Cc2ccc(NC(=O)c3cc(NC(=O)c4cnn(-c5ccccc5)c4N)cc(OC)c3)cc2C(F)(F)F)CC1`, the AC50 was > 26 µM (inactive). With `Cc1nc2c(=O)n(C)c(=O)nc-2n(C)n1` the AC50 was > 26 µM (inactive). For `CC1=C/C(=N\OS(=O)(=O)c2ccccc2)C(C(C)C)=CC1=O`, the AC50 was > 26 µM (inactive). With `O=C(N/N=C/c1c(O)ccc2ccccc12)c1cccnc1` the AC50 was > 26 µM (inactive). For `CCCCC(=O)NC(c1ccccc1Cl)c1ccc2cccnc2c1O` (centres undefined), the AC50 was > 26 µM (inactive). In the case of `Cc1ccc(-c2c(C#N)c(N)n3c(nc4ccccc43)c2C#N)cc1`, the AC50 is reported as > 26 µM (inactive). For `CN(C)C1CCN(Cc2cc(COCc3ccccc3)c3cccnc3c2O)C1` (centres undefined), the AC50 was > 26 µM (inactive). In the case of `CCN1CCN(Cc2ccc(NC(=O)c3cc(NC(=O)C(=O)c4c[nH]c5ccccc45)cc(OC)c3)cc2C(F)(F)F)CC1`, the AC50 is reported as > 26 µM (inactive). `N#CC(C#N)=C1C=CC=CN1/C(=C\c1ccco1)C(=O)c1ccc(Br)cc1` was tested, and the AC50 was > 26 µM (inactive). For `CC[C@@H](C(=O)[C@@H](C)[C@@H](O)[C@H](C)CCc1ccc(C)c(O)c1C(=O)O)[C@H]1O[C@](CC)([C@H]2CC[C@](O)(CC)[C@H](C)O2)C[C@@H]1C`, the AC50 was > 12 µM (inactive). With `CCOC(=O)/C(=C\c1ccc(OC(F)F)cc1)C1=Nn2c(nnc2-c2ccc(Cl)cc2)SC1` the AC50 was > 26 µM (inactive). In the case of `Cc1ccc(-c2c[n+](Cc3ccc(Cl)c(Cl)c3)c3n2CCC3)cc1`, the AC50 is reported as > 26 µM (inactive). For `CC(=O)N1CCN(c2ccc(Oc3ccc([N+](=O)[O-])c(C(F)(F)F)c3)cc2)CC1`, the AC50 was > 26 µM (inactive). For `Nc1nonc1-n1nnc(C(=O)N/N=C/c2cc(Cl)ccc2O)c1CN1CCCCCC1`, the AC50 was > 26 µM (inactive). With `O=C(N/N=C/c1ccc(O)cc1O)/C(=C/c1ccccc1)CCO` the AC50 was > 26 µM (inactive). For `O=c1[nH]c(NCCCO)nc2c1C1(CCCC1)Cc1ccccc1-2`, the AC50 was > 26 µM (inactive). In the case of `O=C(NCCCn1ccnc1)c1ccc(-c2ccccc2)cc1`, the AC50 is reported as > 26 µM (inactive). With `c1ccc(CCNc2nc(-c3ccccn3)nc3ccccc23)cc1` the AC50 was > 26 µM (inactive). In the case of `N#Cc1ccc(C(=O)Nc2nc(-c3cccs3)c(C(=O)C(F)(F)F)s2)cc1`, the AC50 is reported as > 26 µM (inactive). In the case of `Cc1ccc2c(c1)N(C)/C(=C/c1cccc[n+]1CCO)S2`, the AC50 is reported as > 26 µM (inactive). In the case of `CC(=O)NN1C(=O)c2ccc3c4c(ccc(c24)C1=O)C(=O)N(NC(C)=O)C3=O`, the AC50 is reported as > 26 µM (inactive). With `CCOc1ccc(OCc2ccc(C(=O)N/N=C(\C)c3ccccn3)cc2)cc1` the AC50 was > 26 µM (inactive). In the case of `CCCCC1(Cc2ccc([N+](=O)[O-])cc2)C(=O)N(c2ccccc2)N(c2ccccc2)C1=O`, the AC50 is reported as > 26 µM (inactive). `CC(C)OCCCNc1ncnc2c1[nH]c1ccccc12` was tested, and the AC50 was > 26 µM (inactive). `COc1cc(NC(=O)c2[nH]cnc2C(N)=O)cc(C(=O)Nc2cccc(C(F)(F)F)c2)c1` was tested, and the AC50 was > 26 µM (inactive). For `Cc1ccn2c(Nc3ccccc3)c(-c3ccccn3)nc2c1`, the AC50 was > 26 µM (inactive). `Clc1cccc(N=C2NN=C(c3ccc4c(c3)OCCO4)CS2)c1` was tested, and the AC50 was > 26 µM (inactive). For `CC(=O)Nc1ccc(C2=CC(=O)C[C@H](c3ccc4c(c3)OCO4)C2)cc1`, the AC50 was > 26 µM (inactive). For `NC(N)=N/N=C/c1ccc(OCc2ccccc2)cc1`, the AC50 was > 26 µM (inactive). For `CCN(CC)S(=O)(=O)c1ccc(Oc2ccc(S(=O)(=O)N(CC)CC)cc2)cc1`, the AC50 was > 26 µM (inactive). `Cc1ccc2c(C)ccc(O)c2n1` was tested, and the AC50 was > 26 µM (inactive). `Cc1ccc(-n2ncc3c2CCCC3NC(=O)c2ocnc2C)cc1C` (centres undefined) was tested, and the AC50 was > 26 µM (inactive). With `CCOC(=O)c1cnc(-n2nc(C)cc2C)nc1NNc1nc(-c2ccccc2)cc(-c2ccccc2)n1` the AC50 was > 26 µM (inactive). With `C=CCSc1nc2ccccc2n1C(=O)/C=C/c1ccc(OC)c(OC)c1` the AC50 was > 26 µM (inactive). For `O=S1(=O)CCN(Cc2csc(-c3cccs3)n2)CC1`, the AC50 was > 26 µM (inactive). For `CCN(CC)c1ccc(/C=N/Nc2nc(C)cc(C)n2)c(O)c1`, the AC50 was > 26 µM (inactive). With `O=C(NC(NC(=S)Nc1ccccc1)C(Cl)(Cl)Cl)c1cccc(Cl)c1` (centres undefined) the AC50 was > 26 µM (inactive). For `Fc1ccc(-c2cc(-c3nnc4n3CCCCC4)c3ccccc3n2)cc1`, the AC50 was > 26 µM (inactive). For `COc1ccc2nc(N=Nc3ccc(O)c4ccccc34)sc2c1`, the AC50 was > 26 µM (inactive). In the case of `OCCN1CCN(C2Cc3cc(Cl)ccc3Sc3ccc(Cl)cc32)CC1` (centres undefined) (tested in a mixture with another compound), the AC50 is reported as > 26 µM (inactive). `Fc1ccc(C[n+]2c(-c3ccccc3)cc(-c3ccccc3)cc2-c2ccccc2)cc1` was tested, and the AC50 was > 26 µM (inactive). With `Cc1cccn2c(Nc3ccccc3)c(-c3ccccn3)nc12` the AC50 was > 26 µM (inactive). In the case of `COc1ccc(Cl)c(Cn2c(NCc3ccco3)nc3c2c(=O)n(C)c(=O)n3C)c1`, the AC50 is reported as > 26 µM (inactive). `CCCc1cc(=O)n2[nH]cc(-c3ccc(Cl)cc3)c2n1` was tested, and the AC50 was > 26 µM (inactive). `CNc1ccc2oc(C[C@H]3O[C@@]4(CC[C@H]3C)O[C@H]([C@H](C)C(=O)c3ccc[nH]3)[C@H](C)C[C@H]4C)nc2c1C(=O)O` was tested, and the AC50 was > 26 µM (inactive). In the case of `COc1ccc(CC(=O)Nc2cccc(S(=O)(=O)N3CCCCCC3)c2)cc1OC`, the AC50 is reported as > 26 µM (inactive). In the case of `O=C(Nc1cccc(C(F)(F)F)c1)Nc1ccc(N2CCCC2)c(S(=O)(=O)Nc2ccccc2Cl)c1`, the AC50 is reported as > 26 µM (inactive). With `COc1cccc(/C=N/Nc2ncnc(Cl)c2N)c1O` the AC50 was > 26 µM (inactive). In the case of `COc1cc(OC)nc(-n2ncc(Br)c(Br)c2=O)n1`, the AC50 is reported as > 26 µM (inactive). In the case of `O=C(/C=C/c1cccc(Cl)c1)c1ccc([N+](=O)[O-])o1`, the AC50 is reported as > 26 µM (inactive). For `CC(Nc1ncnc2ccccc12)c1ccccc1` (centres undefined), the AC50 was > 26 µM (inactive). With `COc1ccc(OC)c2[nH]c(C(=O)N/N=C/c3ccccc3O)cc12` the AC50 was > 26 µM (inactive). `COc1cccc(/C=N/Nc2ncnc3scc(-c4ccccc4)c23)c1O` was tested, and the AC50 was > 26 µM (inactive). For `CCOC(=O)c1ccc(NC(=O)c2cccnc2)cc1`, the AC50 was > 26 µM (inactive). In the case of `Oc1c(CN2CCOCC2)cc(COCc2ccccc2)c2cccnc12`, the AC50 is reported as > 26 µM (inactive). In the case of `COc1ccc(N=C2S/C(=C\c3ccc(N4CCOCC4)o3)C(=O)N2CCc2c[nH]c3ccccc23)cc1`, the AC50 is reported as > 26 µM (inactive). `O=C(Cc1cccs1)N/N=C\c1ccc([N+](=O)[O-])s1` was tested, and the AC50 was > 26 µM (inactive). `O=C(Nc1nc(-c2ccccn2)cs1)c1cc(Cl)ccc1[N+](=O)[O-]` was tested, and the AC50 was > 26 µM (inactive). For `Cc1ccc(Nc2nc(NCc3ccco3)c3ccccc3n2)cc1`, the AC50 was > 12 µM (inactive). With `CC1CCc2c(sc3nc(C(C)(C)C)nc(N4CCN(C(=O)CCl)CC4)c23)C1` (centres undefined) the AC50 was > 26 µM (inactive). With `C/C(=N\NC(=O)c1ccc(F)cc1)c1ccccn1` the AC50 was > 26 µM (inactive). In the case of `CCCCCn1c(=O)c(C(=O)NC(C)c2ccccc2)c(O)c2ccccc21` (centres undefined), the AC50 is reported as > 26 µM (inactive). In the case of `CN(C)c1cc[n+](CC(=O)Nc2ccc(Oc3ccccc3)cc2)cc1`, the AC50 is reported as > 26 µM (inactive). With `CCn1c(=NC(=O)CCS(=O)(=O)c2ccccc2)sc2cccc(OC)c21` the AC50 was > 12 µM (inactive). With `O=C(NNC(=O)c1ccccc1OCc1ccccc1)c1ccccc1O` the AC50 was > 26 µM (inactive). `Cc1ccc(NC(=O)/C=C/c2ccc([N+](=O)[O-])s2)c(C)c1` showed an AC50 of 1.17 µM. `CCOC(=O)N1CCN(Cc2cc(Cl)c3cccnc3c2O)CC1` was tested, and the AC50 was > 26 µM (inactive). With `Cc1cc2c(NCCc3ccccc3)ncnc2s1` the AC50 was > 26 µM (inactive). `Cc1cc(C(=O)NC2CCCc3c2cnn3-c2cccc(C)c2C)n(C)n1` (centres undefined) was tested, and the AC50 was > 26 µM (inactive). In the case of `CCC1(c2ccc(F)cc2)NC(=O)N(CC(=O)Nc2ccc(-c3nc4ccc(C)cc4s3)cc2)C1=O` (centres undefined), the AC50 is reported as > 26 µM (inactive). With `Cc1ccc(Nc2cc(C)nc(NCc3ccccc3)n2)cc1` the AC50 was > 12 µM (inactive). With `O=C(Nc1nc(-c2ccccn2)cs1)c1ccc(Cl)s1` the AC50 was > 26 µM (inactive). `Cc1ccc(-c2c[n+]3c(n2-c2ccccc2)SCC3)cc1` was tested, and the AC50 was > 26 µM (inactive). In the case of `Cn1c2c(c(=O)n(C)c1=O)C(C(F)(F)F)(C(F)(F)F)N=C(c1ccc(Cl)cc1)N2`, the AC50 is reported as > 26 µM (inactive). With `CCc1ccc(OCC(=O)NC(NC(=S)Nc2ccc(C)cc2C)C(Cl)(Cl)Cl)cc1` (centres undefined) the AC50 was > 26 µM (inactive). `C=C[C@H](CC(C)C)N(Cc1ccccc1)S(=O)(=O)N(Cc1ccc(OC)cc1)[C@H](C=C)CC(C)C` was tested, and the AC50 was > 26 µM (inactive). In the case of `COC(=O)c1ccccc1NC1=C/C(=N\S(=O)(=O)c2ccc(C(=O)O)cc2)c2ccccc2C1=O`, the AC50 is reported as > 26 µM (inactive). In the case of `Clc1ccc2nnnc(-c3ccccc3)c2c1`, the AC50 is reported as > 26 µM (inactive). `CCCCN(C)CCNC(=O)c1cc2c(-c3ccccc3F)nn(C)c2s1` was tested, and the AC50 was > 12 µM (inactive). For `CC(=O)Nc1ccc(S(=O)(=O)Nc2ccc(N3CCCCC3)cc2)cc1`, the AC50 was > 26 µM (inactive). For `COc1ccc(-n2cc(-c3ccc(C)cc3)[n+]3c2SCC3)cc1`, the AC50 was > 26 µM (inactive). With `COc1ccc(S(=O)(=O)N(C(=O)c2ccco2)c2cc3sc(=O)oc3c3ccccc23)cc1` the AC50 was > 26 µM (inactive). For `CCCCCc1ccc(OCCCC[n+]2cccc(C)c2)c(CCCCC)c1`, the AC50 was > 26 µM (inactive).

From PubChem BioAssay AID463206 (Broad Institute, 2010)
